Source: publication PMC10688702, “The indole motif is essential for the antitrypanosomal activity of N^5-substituted paullones” (PLOS ONE, 2023)
Where a name gives a salt, the structure may show the parent alone.

How the values were obtained:
[1] = Kinetic aqueous solubility by nephelometry; type: physicochemical; conditions: phosphate-buffered saline, aqueous buffer, kinetic from dmso stock, PBS pH 7.4, 1% DMSO, 25°C, logS = decadic logarithm of molar solubility [M]
Procedure: Phosphate-buffered saline pH 7.4 was prepared according to the European Pharmacopeia 10.4 by dissolving 2.38 g sodium monohydrogen phosphate dodecahydrate, 0.19 g potassium dihydrogen phosphate and 8.0 g sodium chloride in demineralised water (to a total volume of 1000 mL). The pH was adjusted to a value of 7.4 with hydrochloric acid. The buffer was filtered through a 0.45 μm membrane filter (Chromafil® Xtra PES-45/25) before use.
The kinetic aqueous solubility was determined by nephelometry. The measurements were performed on the NEPHELOstar Plus, with accompanying software Omega 5.11 and MARS 3.20 (BMG LABTECH, Ortenberg, Germany). Generally, 2 dilution series of 1–2 weighed portions of each substance were measured. First, stock solutions of the compounds were prepared in DMSO. A series of dilutions in DMSO were prepared from one stock solution to obtain at least 3 concentrations below and 3 concentrations above the precipitation point in the measured series. The specific concentrations were usually measured as duplicates.
The 96-well plate (Corning UV transparent flat-bottom 96-well plate, Corning Incorporated, Kennenbunk, ME, USA) was inspected for contamination and scratches and measured without samples prior to the solubility measurement of the compounds. 198 μL of phosphate-buffered saline pH 7.4 was placed in a 96 well plate for each well to be measured. 2 μL of a DMSO solution was added and immediately mixed by moving the pipette plunger. This solution either contained no substance—and served as a blank for the measurement (3 wells)—or the respective DMSO dilution of the substance (2–4 wells). The concentration of the solvent DMSO in each measured solution was 1%. The concentration of the compound corresponds to a 1:100 dilution compared to the respective DMSO dilution. The well plate bottom was cleaned with a lint-free cloth and compressed air and inspected for impurities before measurement. After shaking at 500 rpm for 10 s (double orbital), the measurement was carried out in the nephelometer with the laser intensity set to 80% and beam focus of 2.5 mm at a temperature of 25°C.
The obtained measuring points, relative nephelometric units (RNU) per compound concentration, were used to model two straight lines: one straight line with constant low readings and slope → 0 characterises the concentration range where no precipitation has taken place yet; The other straight line has a steep slope and increase of the RNU per concentration and characterises the concentrations at which precipitation takes place in the respective sample vessels.
The evaluation was carried out by calculating the two straight lines and their point of intersection. Outliers and values in a saturation range for the kick-off curve (usually >800 kRNU) were not used to create the straight lines and are listed separately in the evaluation file. […] The x-value of the intersection of the two straight lines represents the kinetic solubility. The results of two dilution series are additionally indicated as range (in brackets). For measurements of 3 or more series, a mean value with standard deviation is provided. The logS value describes the decadic logarithm of the molar solubility: logS (molar solubility [M]).

[2] = target: trypanothione synthetase of L. infantum (LiTryS) (Leishmania infantum, UniProt A4I2Z3); assay: TryS activity screening assay on recombinant LiTryS; type: biochemical; conditions: for activity at 30 µM: read-out: LiTryS activity [% at 30 μM]; for LiTryS activity [% at 30 μM]: recombinant TryS, % activity at 30 μM compound, errors 2 SD
trypanothione synthetase of L. infantum (LiTryS), sequence (A4I2Z3 entry or part of it): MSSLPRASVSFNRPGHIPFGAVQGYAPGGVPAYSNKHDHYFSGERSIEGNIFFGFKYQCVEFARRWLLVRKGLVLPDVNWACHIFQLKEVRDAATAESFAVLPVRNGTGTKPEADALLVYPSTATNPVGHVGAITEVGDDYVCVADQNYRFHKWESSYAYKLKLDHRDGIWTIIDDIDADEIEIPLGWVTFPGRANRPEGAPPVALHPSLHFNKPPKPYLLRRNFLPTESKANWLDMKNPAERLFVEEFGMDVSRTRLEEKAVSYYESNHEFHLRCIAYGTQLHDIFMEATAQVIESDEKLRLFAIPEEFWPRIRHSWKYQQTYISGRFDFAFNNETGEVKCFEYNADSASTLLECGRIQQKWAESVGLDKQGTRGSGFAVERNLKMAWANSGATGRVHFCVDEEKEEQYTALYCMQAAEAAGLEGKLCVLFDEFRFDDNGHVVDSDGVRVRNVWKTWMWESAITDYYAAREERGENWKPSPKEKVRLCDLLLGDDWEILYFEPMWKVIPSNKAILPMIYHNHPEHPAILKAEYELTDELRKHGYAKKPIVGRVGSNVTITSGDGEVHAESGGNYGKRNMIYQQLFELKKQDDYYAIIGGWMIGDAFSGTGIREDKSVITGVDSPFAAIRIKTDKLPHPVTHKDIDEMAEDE
Procedure: (§1) TryS from different trypanosomatids was produced in recombinant form with an N-terminal His-tag. The constructs pET-15b TbTryS and pET-28c(+)LiTryS were used to express TryS of T. b. brucei 427 (MITat1.4, GenBank accession protein id CAC87573.1), and L. infantum JPCM5 (GenBank accession protein id CAM69145.1). E. coli strain BL21 (DE3) served as the expression host. For TbTryS, the cells were cultured in a medium based in Terrific Broth and induction with isopropyl 1-thio-β-D-galactopyranoside (IPTG), while for LiTryS, the cells were cultured in ZYM-5052 auto-induction medium. For a detailed description of the expression, see Benítez et al.. The purification was performed by immobilised metal affinity chromatography in a HisTrap Fast Flow column (GE Healthcare) followed by size exclusion chromatography. […] The fractions containing recombinant TryS with ≥95% purity were pooled and concentrated to >10 mg protein/mL using a 10 kDa cut-off Amicon filter (Millipore, Billerica, CA). Glycerol was added at a final concentration of 40% (v/v). The samples were stored at -80°C. Enzyme purity and activity were assessed by SDS-PAGE (12%) under reducing conditions and by the end-point TryS assay (see TryS activity screening assay), respectively. Protein concentration was determined using the bicinchoninic acid assay with bovine serum albumin as standard. The protocols yielded 25–30 mg TbTryS or LiTryS per litre of culture medium and homogeneous specific activity.
(§2) For all TryS, ATP was used at 150 μM because of a high background signal at higher concentrations and Spd fixed at 2 mM, in agreement with the intracellular levels calculated from data reported in the literature for trypanosomatids. GSH was adjusted to 0.05 and 0.25 mM for TbTryS and LiTryS, respectively, to avoid substrate inhibition or to approach physiological concentrations. […] Microtiter plate wells were loaded with 5 μL of the test compound, DMSO (reaction control) or a TryS specific inhibitor (inhibition control) and 40 μL of MM solution. The reactions were then started by adding 5 μL of TryS (2 and 3*10^−5 μmol*min^-1*mL^-1 for LiTryS and TbTryS, respectively) and stopped after 15 min with 200 μL BIOMOL® GREEN reagent (Enzo Life Sciences). The compounds used as inhibition control were added at concentrations that inhibited 50% TryS activity: 30 μM and 150 nM MOL2008 for TbTryS and LiTryS, respectively. Blanks were prepared for each condition by adding 5 μL of screening reaction buffer instead of the enzyme. The TryS activity is calculated as follows: TrySactivity%=A650nmCi-A650nmCiB/A650nmE-A650nmEB*100%
(§3) A650 nm Ci is the mean absorbance at 650 nm for the reaction test with compound I (Ci), A650 nm CiB is the mean absorbance at 650 nm for the blank control with compound I (CiB), A650 nm E is the mean absorbance at 650 nm for the reaction control with DMSO (E) and A650 nm EB is the mean absorbance at 650 nm for the blank control with DMSO (EB). The errors were expressed as 2 standard deviations (SD), SD estimated as σ^n−1.

[3] = test system: L. infantum amastigotes (intracellular, in J774.A1 macrophages); assay: Viability assay for L. infantum amastigotes; type: cell-based; conditions: Leishmania infantum, J774.A1, 24 h, read-out: L. infantum amastigote viability [% at 20 μM]
Procedure: Viability assay for L. infantum amastigotes. L. infantum promastigotes from the reference strain MHOM/MA/67/ITMAP263, stably transfected with a vector encoding a red-shifted luciferase gene (RE9HLUC; Branchini et al.; Benítez et al.) were grown in fresh complete RPMI medium (RPMI basic medium containing 25 mM HEPES, 10% v/v iFBS, 100 U/mL penicillin, 100 μg/mL streptomycin and 15 μg/mL hygromycin B) at 28°C in sealed culture flasks. Metacyclic promastigotes were obtained by a negative selection procedure using peanut agglutinin and used to infect murine macrophages (cell line J774.A1) at a 1:10 ratio for macrophages (5×10^6 cells): parasites (5×10^7 cells). 200 μL of this suspension was added per well to a 96-well culture microplate, which was then incubated at 37°C for 24 h in a 5% CO2/95% air atmosphere incubator. […] The culture microplate was incubated in the CO2 incubator for additional 24 h. Next, the supernatant was removed and the microplate wells were washed with pre-warmed PBS (200 μL). […] All conditions were tested in triplicates and the percentage amastigote viability was calculated as described for infective T. b. brucei, with errors expressed as one SD, estimated as σ^n-1.
A macrophage cell density correction factor based on the incorporation of propidium iodide was calculated and applied to normalise amastigote viability related to host cell density in the well. For a detailed explanation of the protocol, see Benítez et al..

[4] = test system: bloodstream form of T. b. brucei strain 427; assay: Viability assay for T. b. brucei (whole parasite, bioluminescence); type: cell-based; conditions: 24 h; for T. b. brucei (BS) proliferation [% at 10 μM]: 10 μM compound
Procedure: Viability assay for T. b. brucei. The bloodstream form of the monomorphic T. b. brucei strain 427, cell line 5141313, constitutively and stably expressing an ectopic copy of the Photinus pyralis red-shifted luciferase, was cultured in vitro with HMI-9 medium, supplemented with 10% fetal bovine serum, 10 U/mL penicillin (Gibco), 10 μg/mL streptomycin (Gibco), 0.2 μg/mL bleomycin (Jena Bioscience), 4 μg/mL G418 disulfate salt (Sigma-Aldrich) and 0.2 μg/mL puromycin (Invitrogen), inside a humidified incubator (Thermo Fisher Scientific) with controlled temperature (37°C) and CO2 (5%) in a 25 or 75 cm^2 vented-cap culture-flask. The anti-trypanosomal activity of compounds was evaluated in a 96-well culture plate containing 2.2 μL/well DMSO (negative control) or compounds dissolved in DMSO (1% final concentration), and 220 μL/well of a suspension of 1 × 10^5 parasites/mL. The plates were incubated at 37°C and 5% CO2 for 24 h. Next, each well was transferred to a 96-well black plate, and 20 μL of a solution containing d-luciferin (1.5 mg/mL in PBS glucose 1% w/v) and Triton X-100 (0.05% v/v) was added. Bioluminescence signal was measured in a LUMIstar OPTIMA Microplate luminometer using the following settings: 10 s shaking, 5 s/well acquisition, 0.2 s measurement delay, maximum gain, and 37°C. For the bioluminescence assay, parasite viability was calculated according to the following formula: parasiteviability%=BLcpd-BLblank/BLneg-BLblank*100%
BL refers to the mean of bioluminescence signal corresponding to the tested compound (cpd), the blank (blank, complete media containing 1% v/v DMSO), or the negative control (neg, parasites treated with 1% v/v DMSO). EC50 values were determined from concentration-response curves fitted to a four-parameter sigmoid equation using the GraphPad Prism software (version 6.0). All errors are expressed as one SD, estimated as σ^n-1. For a detailed explanation of the protocol, see Dibello et al..

[5] = test system: trypanothione synthetase of T. b. brucei (TbTryS); assay: TryS activity screening assay on recombinant TbTryS; type: biochemical; conditions: % activity at 30 μM compound, errors 2 SD
Procedure: as §1, §2, §3

Row | Structure (SMILES) | solubility kinetic at 10 s [1] | activity at 30 µM [2] | viability at 20 µM [3] | LiTryS activity [% at 30 μM] [2] | T. b. brucei (BS) proliferation [% at 10 μM] [4] | EC50 ([4]; Trypanosoma brucei, read-out: T. b. brucei (BS) [EC50) | TbTryS activity [% at 30 μM] [5]
1 | CON=C1CCC(=O)N(CC(=O)NCCN2CCNCC2)c2ccccc21 (mixture of isomers) [5d, (E/Z)-2-[5-(Methoxyimino)-2-oxo-2,3,4,5-tetrahydro-1H-benzo[b]azepin-1-yl]-N-[2-(piperazin-1-yl)ethyl]acetamide dihydrochloride] | > 0.001 M | 97.5 ± 4.7% | 74.9 ± 11.2% |  |  |  | 
2 | Cl.O=C(CN1C(=O)CCCc2ccccc21)N1CCNCC1 [2q, 1-[2-Oxo-2-(piperazin-1-yl)ethyl]-1,3,4,5-tetrahydro-2H-benzo[b]azepin-2-one hydrochloride] | > 0.00398 M | 113 ± 10.7% |  |  |  |  | 
3 | O=C(O)CN1C(=O)Cc2c([nH]c3ccc(I)cc23)-c2ccc(Cl)cc21 [9a, 2-(3-Chloro-9-iodo-6-oxo-7,12-dihydrobenzo[2,3]azepino[4,5-b]indol-5(6H)-yl)acetic acid] |  | 67.2 ± 3.9% |  | moderate inhibitory activity | 24.2 ± 3.4% | 10.5 ± 1.3 µM | 102.9 ± 6.7%
4 | O=C(O)CN1C(=O)Cc2c([nH]c3ccc(Cl)cc23)-c2ccc(Cl)cc21 [9b, 2-(3,9-Dichloro-6-oxo-7,12-dihydrobenzo[2,3]azepino[4,5-b]indol-5(6H)-yl)acetic acid] |  | 90.2 ± 6.7% |  |  | 56.4 ± 3.8% |  | 104.0 ± 10.1%
5 | O=C(O)CN1C(=O)Cc2c([nH]c3ccc(C(F)(F)F)cc23)-c2ccc(Cl)cc21 [9c, 2-(3-Chloro-6-oxo-9-trifluoromethyl-7,12-dihydrobenzo[2,3]azepino[4,5-b]indol-5(6H)-yl)acetic acid] |  | 62.4 ± 6.4% |  | moderate inhibitory activity | 61.6 ± 10.2% |  | 110.2 ± 11.5%
